Test results: patent US20250250265A1, “BENZOTHIAZOLE-PHENYLSULFONYL-PIPERIDINE ANALOGS AS ACTIVATORS OF NACYLPHOSPHATIDYLETHANOLAMINE HYDROLYZING PHOSPHOLIPASE D” (priority 2022, published 2025)
Entries after “also recorded” stand apart in the source; their conditions may differ. Read-outs that look alike come from different tables or passages of the source.

Assays:
[1] = molecular target: T1, recombinant mouse NAPE-PLD (Mus musculus, UniProt Q8BH82); experiment: In vitro fluorescence NAPE-PLD activity assay (HTS/CRC) with recombinant mouse NAPE-PLD and PED-A1; assay type: biochemical; settings: for Emax (95% Cl): Table 4, maximal efficacy as fold increase in NAPE-PLD activity versus vehicle only; for bAC175 / AC50 / Max % bA (%): Table 1; for bAC175: compound concentration to induce 175% basal activity; for AC50: concentration for 50% maximum activation from basal activity (no activator); for Max % bA (%): maximum induced activity compared to basal (100%) activity
T1 construct: hexahistidine (His6) (C); made in house; host or cells: E. coli
T1 sequence (Q8BH82 1-396): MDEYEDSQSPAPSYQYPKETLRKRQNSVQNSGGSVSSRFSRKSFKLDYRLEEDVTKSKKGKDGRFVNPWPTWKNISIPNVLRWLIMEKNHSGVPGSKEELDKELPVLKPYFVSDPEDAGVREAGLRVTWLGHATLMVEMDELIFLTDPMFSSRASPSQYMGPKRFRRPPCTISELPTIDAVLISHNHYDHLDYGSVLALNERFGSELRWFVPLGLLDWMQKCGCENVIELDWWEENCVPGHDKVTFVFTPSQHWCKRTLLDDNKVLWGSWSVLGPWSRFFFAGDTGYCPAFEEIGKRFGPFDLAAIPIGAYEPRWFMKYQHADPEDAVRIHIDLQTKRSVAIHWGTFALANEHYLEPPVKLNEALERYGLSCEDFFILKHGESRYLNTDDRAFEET
Protocol: Using the fluorogenic NAPE substrate, PED-A1, and recombinant mouse NAPE-PLD (rNAPE-PLD), an in vitro high-throughput (HTS) assay was conducted to screen ˜40,000 compounds for their ability to modulate NAPE-PLD activity. The HTS assay enabled the detection of both NAPE-PLD activators and inhibitors. […] Initial structure-activity response studies with the top hits identified benzothiazole phenylsulfonyl-piperidine carboxamide analogs (BT-PSP analogs) as lead compounds for NAPE-PLD activators (Table 1). The lead BT-PSP analog identified, VU534, induces 50% of its activation effect on NAPE-PLD at 270 nM (AC50 270 nM), and induces a maximal effect of 195% of basal NAPE-PLD activity (Table 1).
In vitro fluorescence NAPE-PLD activity assays using recombinant NAPE-PLD and either PED-A1 or flame-NAPE as fluorogenic substrate were performed as previously described except with small modifications as noted below. See Aggarwal et al., J. Biol. Chem. 295(21): 7289-7300 (2020); Zarrow et al., J. Lipid Res. 63(1): 100156 (2022).
For the HTS assays, test compounds were incubated with recombinant enzyme for 1 h prior to adding PED-A1 (final 0.4 μM) mixed with N-palmitoyl-dioleoyl-PE (final 3.6 μM) to adjust for the high sensitivity of the Panoptic instrument (WaveFront Biosciences). Assays used black-wall, clear-bottom, non-sterile, and non-treated 384-well plates (Greiner Bio-One 781906). The assay was read in kinetic fluorescence mode on the Panoptic instrument for 4 min and the slope of the signal from 30-100 s was used for analysis. A total of 39,328 compounds from the Vanderbilt Discovery Collection were tested, each at 10 μM. The tested compounds were chosen to represent a structurally diverse selection from the full library. Each 384-well plate included 320 test compound wells and 64 control wells. Unlike previous pilot screening assays, bithionol (10 μM final) was used in place of lithocholic acid (100 μM final) as the inhibitor control. Before performing high-throughput screening, a checkerboard assay was performed to validate the assay parameters. This yielded a Z′ score of 0.676. Z′ scores were also calculated for each plate during screening, and plates with scores <0.5 were re-run. The average Z′ across all screening plates was 0.52, and the total hit rate was 3.6%. B-scores were calculated from the initial slopes across each plate using WaveGuide software (WaveFront Biosiences). Modulator hits were defined as compounds with absolute B-scores of 3 or higher. The number of compounds in various B-score ranges were as follows: […], 12 compounds; −10 to −5, 221 compounds; −5 to −3, 770 compounds; −3 to 3, 37924 compounds; 3 to 4, 314 compounds; 4 to 6, 70 compounds; 6 to 10, 15 compounds. Activator hits with B-scores of >3 were selected for the replication assay and a selection of analogs of the activators.
Concentration response curve (CRC) experiments used the same assay conditions as the HTS assay, except that graded concentrations of each test compound were used, with total amount of vehicle (DMSO) kept constant. CRC experiments with purified recombinant mouse NAPE-PLD were performed on two separate days, with values from each day normalized to vehicle only controls on same plate, and then all normalized values from both days averaged together. CRC experiments with human NAPE-PLD represent value from only a single day, due to limited amounts of this recombinant enzyme.

[2] = molecular target: T2, NAPE-PLD activity of RAW264.7 macrophages (Mus musculus, UniProt Q8BH82); experiment: Cell-based NAPE-PLD activity in RAW264.7 macrophages (PED-A1 with orlistat); settings: for effect on NAPE-PLD activity in RAW264.7 cells: graded concentrations (FIG. 17A); for 10 μM Mϕ % NAPE-PLD activity: Table 2, 10 μM compound, vehicle = 100%; for In-cell NAPE-PLD activity in RAW 264.7 (10 μM) with PED-A1 or flame-NAPE as substrate: Table 3
T2 construct: endogenous in cells; host or cells: RAW264.7
T2 sequence (Q8BH82 1-396): T1 sequence (Q8BH82 1-396)
Protocol: (§1) NAPE-PLD activity was measured in cells as previously described, except that FluoroBrite DMEM (Gibco A1896701) was used as media. See Zarrow et al., J. Lipid Res. 63(1): 100156 (2022). For RAW264.7 assays, PED-A1 (3.6 μM final) was used as the substrate with 10 μM orlistat added to inhibit PLA1 activity, while for HepG2 cells, flame-NAPE was used (with no orlistat added).

[3] = molecular target: T3, NAPE-PLD activity of HepG2 cells (Homo sapiens, UniProt Q6IQ20); experiment: Cell-based NAPE-PLD activity in HepG2 cells (flame-NAPE); settings: for In-cell NAPE-PLD activity in HepG2 (10 μM) with PED-A1 or flame-NAPE as substrate: Table 3; for Emax / EC50: HepG2 cells; for Emax: % maximal induced activity (Table 2, Example 7); for EC50: flame-NAPE (Table 2, Example 7); for effect on NAPE-PLD activity in HepG2 cells: graded concentrations
T3 construct: endogenous in cells; host or cells: HepG2
T3 sequence (Q6IQ20 whole entry): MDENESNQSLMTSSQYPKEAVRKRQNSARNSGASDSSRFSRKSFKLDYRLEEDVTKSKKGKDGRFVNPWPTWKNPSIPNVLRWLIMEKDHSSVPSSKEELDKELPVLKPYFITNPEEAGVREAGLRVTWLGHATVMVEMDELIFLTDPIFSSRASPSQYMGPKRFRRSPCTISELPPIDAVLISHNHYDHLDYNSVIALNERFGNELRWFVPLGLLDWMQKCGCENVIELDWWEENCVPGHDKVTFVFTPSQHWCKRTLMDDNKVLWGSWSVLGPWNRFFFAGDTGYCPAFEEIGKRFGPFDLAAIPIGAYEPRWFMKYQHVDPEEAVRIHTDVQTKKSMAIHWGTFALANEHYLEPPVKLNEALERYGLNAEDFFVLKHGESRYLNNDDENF
Protocol: In vitro models of the hepatic steatosis of non-alcoholic fatty liver disease (NAFLD) are well-established, with the primary method being incubation of primary human hepatocytes or hepatocyte cell lines such as HepG2, HuH7, HepaRG, with oleic acid and palmitic acid for 24 to 48 h, then measuring the resulting steatosis, lipid peroxidation, apoptosis, and inflammatory gene expression. Using flame-NAPE to measure NAPE-PLD activity in the human hepatoma HepG2 cell line, the experimental data confirmed that VU534 activated NAPE-PLD in human cells (AC50 940 nM; max % bA 155%). Bithionol (10 μM) reduced HepG2 flame-NAPE hydrolysis by >67%.
as §1

[4] = test system: HepG2 human hepatocytoma cells; experiment: Cytotoxicity (MTT) in HepG2 cells; assay type: cell-based; settings: for % HepG2 viability (33 μM): Table 3; for cytotoxicity in HepG2 cells: up to / at 30 μM
Protocol: Cytotoxicity was measured using MTT as previously described except that the studies used 96-well plates with 100 μL of 0.3 mg/mL MTT solution was added after 24 h of treatment and then replaced after 3 h with 0.1 M HCl in isopropanol. See Aggarwal et al., J. Biol. Chem. 295(21): 7289-7300 (2020). Viability was expressed as percent absorbance at 560 nm relative to vehicle controls.

[5] = Table 2, maximal induced activity for recombinant NAPE-PLD compared to basal (100%), read-out: Emax (%)
[6] = Table 2, rNAPE-PLD activity assay, read-out: EC50
[7] = Table 3, read-out: In vitro EC50
[8] = Table 3, read-out: In vitro Emax (100% activity is baseline activity of vehicle only)

SMILES | Emax (95% Cl) [1] | In-cell NAPE-PLD activity in HepG2 (10 μM) with PED-A1 or flame-NAPE as substrate [3] [%] | % HepG2 viability (33 μM) [4] [%] | bAC175 [1] [nM] | AC50 [1] [nM] | Max % bA (%) [1] [%] | Emax [1, 5] [%] | EC50 [1, 6] [nM] | EC50 [1, 7] [nM] | Emax [1, 8] [%] | 10 μM Mϕ % NAPE-PLD activity [2] [%] | In-cell NAPE-PLD activity in RAW 264.7 (10 μM) with PED-A1 or flame-NAPE as substrate [2] [%] | other results
O=C(Nc1nc2ccccc2s1)C1CCN(S(=O)(=O)c2ccc(F)c(Cl)c2)CC1 [VU233] | <1.2 fold | 130 | 69 | – | – | – | – | – | – | – | – | – | effect on NAPE-PLD activity in RAW264.7 cells [2]: no significant effect; also recorded: not significant; EC50, NAPE-PLD activity of HepG2 cells ([3]; FIG. 18B, flame-NAPE): not calculable; cytotoxicity in HepG2 cells [4]: no cytotoxicity
Cc1cc(C)c2sc(NC(=O)C3CCN(S(=O)(=O)c4ccc(F)cc4)CC3)nc2c1 [VU534, N-(5,7-Dimethylbenzo[d]thiazol-2-yl)-1-((4-fluorophenyl)sulfonyl)piperidine-4-carboxamide] | 2.1 (2.0-2.2) fold | 211 | 91 | 750 | 270 | 195 | 205 | 280 | 290 | 209 | 140 | 139 | Emax, Nape-pld activity in RAW264.7 cells ([2]; FIG. 17A, PED-A1): 1.6 fold; effect on NAPE-PLD activity in RAW264.7 cells [2]: significantly increased NAPE-PLD activity; Emax, NAPE-PLD activity of HepG2 cells ([3]; FIG. 18B, flame-NAPE): 1.6 fold; AC50 ([3]; HepG2, flame-NAPE (Example 7)): 940 nM; max % bA in HepG2 cells ([3]; HepG2, flame-NAPE (Example 7)): 155%; Emax [3]: 145%; EC50 [3]: 2400 nM; effect on NAPE-PLD activity in HepG2 cells ([3]; flame-NAPE): increased NAPE-PLD activity; also recorded: enhances NAPE-PLD activity; cytotoxicity in HepG2 cells [4]: minimal cytotoxicity
Cc1cccc2sc(NC(=O)C3CCN(S(=O)(=O)c4cnn(C)c4)CC3)nc12 [MRJ-058D] | – | – | – | – | – | – | 240 | 1500 | – | – | 100 | – | –
Cc1cccc2sc(NC(=O)C3CCN(S(=O)(=O)c4cccnc4)CC3)nc12 [MRJ-058C] | – | – | – | – | – | – | 175 | 940 | – | – | 115 | – | –
O=C(Nc1nc2ccccc2s1)C1CCN(S(=O)(=O)c2cccnc2)CC1 [VU203] | 1.8 (1.7-2.0) fold | 122 | 41 | – | – | – | – | – | 3400 | 183 | – | – | –
Cn1cc(S(=O)(=O)N2CCC(C(=O)Nc3nc4ccccc4s3)CC2)cn1 [VU227] | 1.7 (1.6-1.9) fold | 125 | 66 | – | – | – | – | – | ~2900 | ~150 | – | 102 | –
Cc1cccc2sc(NC(=O)C3CCN(S(=O)(=O)c4cnn(C)c4)CC3)nc12 [VU210] | 2.4 (2.3-2.6) fold | 124 | 67 | – | – | – | – | – | 1500 | 239 | – | 98 | –
Cc1cccc2sc(NC(=O)C3CCN(S(=O)(=O)c4cccnc4)CC3)nc12 [VU211] | 2.1 (2.0-2.2) fold | 148 | 72 | – | – | – | – | – | ~940 | ~176 | – | 114 | –
Cc1ccc2nc(NC(=O)C3CCN(S(=O)(=O)c4ccc(F)cc4)CC3)sc2c1 [VU486] | 1.8 (1.7-1.9) fold | – | – | – | – | – | 190 | 240 | 240 | 189 | 105 | 107 | –
Cc1ccc(S(=O)(=O)N2CCC(C(=O)Nc3nc4c(C)cc(C)cc4s3)CC2)cc1 [VU575] | 2.4 (2.3-2.5) fold | – | – | 1690 | 950 | 210 | 220 | 190 | 190 | 215 | 105 | 107 | Emax [3]: 145%; EC50 [3]: 3100 nM; effect on NAPE-PLD activity in HepG2 cells ([3]; flame-NAPE): enhances NAPE-PLD activity
Cc1cccc2sc(NC(=O)C3CCN(S(=O)(=O)c4ccc(F)c(Cl)c4)CC3)nc12 [MRJ-058B] | – | – | – | – | – | – | 180 | 4700 | – | – | 135 | – | –
Cc1cc2nc(NC(=O)C3CCN(S(=O)(=O)c4ccc(F)cc4)CC3)sc2cc1C [VU536] | 2.3 (2.2-2.4) fold | – | – | 2400 | 1540 | 215 | 225 | 890 | 890 | 227 | 155 | 155 | –
Cc1ccc2sc(NC(=O)C3CCN(S(=O)(=O)c4ccc(F)cc4)CC3)nc2c1C [VU517] | 2.0 (2.0-2.1) fold | – | – | 1480 | 767 | 190 | 210 | 1500 | 1500 | 213 | 125 | 123 | Emax [3]: 185%; EC50 [3]: 8900 nM; effect on NAPE-PLD activity in HepG2 cells ([3]; flame-NAPE): enhances NAPE-PLD activity
